# From US10583137B2, “Triazole DAGLα inhibitors” (THE SCRIPPS RESEARCH INSTITUTE, priority 2015, dated 2020)
# Read-outs that look alike come from different tables or passages of the source.
# What was measured:
# DAGLβ (hDAGLβ-FLAG) = DAGLβ (hDAGLβ-FLAG) (Homo sapiens (Human), UniProt Q8NCG7); experiment: competitive ABPP, membrane proteome of transfected HEK293T cells; assay type: biochemical; conditions: for inhibition at 0.8 µM: read-out: DAGLβ % inh. 0.8 μM; for inhibition at 0.0032 µM: read-out: DAGLβ % inh. 3.2 nM
# Description: (§1) Compounds 19 and 20 were tested for in vitro inhibition of DAGLα and DAGLβ as measured by competitive activity-based protein profiling (ABPP) of […] using a HT-01 probe (targets DAGLα and DAGLβ) and a FP-Rh probe (targets serine hydrolases).
# (§2) Briefly, membrane proteome (1 mg/ml, 20 μL) was prepared from HEK293T cells (transiently transfected with hDAGLα-FLAG or hDAGLα-S472A-FLAG, hDAGLβ-FLAG or hDAGLβ-S443A-FLAG) as described in Example 16. The proteome was incubated at room temperature with vehicle (DMSO) or compound in 0.5 μL DMSO for 30 min. The membrane proteome sample was subsequently treated for 30 min with HT-01 probe (1 μM) or FP-Rh probe (1 μM). The reactions were quenched with 10 μL 3× Laemmli sample buffer (final concentrations: 60 mM Tris-Cl pH 6.8, 2% (w/v) SDS, 10% (v/v) glycerol, 5% (v/v) (3-mercaptoethanol, 0.01% (v/v) bromophenol blue). The samples were directly loaded and resolved on SDS page gel (10% acrylamide). The gels were scanned using a ChemiDoc MP system (Cy3 settings, 605/50 filter).
# (§3) The resolved proteins were transferred from the gels to a polyvinyldifluoride membrane for Western Blotting using a Trans-Blot® Turbo (BioRad). FLAG-tagged enzymes were stained using rabbit anti-FLAG as primary antibody, and goat-anti-rabbit HRP as secondary antibody. The blot was developed in the dark using a 10 mL luminal solution, 100 μL ECL enhancer and 3 μL H2O2. Chemiluminescence was visualized using a ChemiDoc XRS (BioRad).
# (§4) The percentage of DAGL activity remaining in the assayed samples was determined by measuring the integrated optical intensity of the fluorescent protein bands of the Western Blot using image lab 4.1. The relative intensity was compared to the vehicle (DMSO) treated proteins, which were set to 100%. IC50 values were determined by plotting a log(inhibitor) vs. normalized response (Variable slope) dose-response curve generated using Prism software (GraphPad).
# DAGLα (hDAGLα-FLAG) = DAGLα (hDAGLα-FLAG) (Homo sapiens (Human), UniProt Q9Y4D2); experiment: as above; assay type: biochemical; conditions: for inhibition at 0.8 µM / DAGLα % inh. 0.8 μM: 0.8 μM (stated under the cell); for inhibition at 0.8 µM: read-out: DAGLα % inh. 0.8 μM; for inhibition at 0.0032 µM: 3.2 nM, read-out: DAGLα % inh. 3.2 nM
# Description: as §1, §2, §3, §4
# [1] = ABPP method, n=3, read-out: IC50, DAGLβ
# [2] = ABPP method, n=3, read-out: IC50, DAGLα
# DAGLα (hDAGLα-FLAG), sequence (Q9Y4D2 whole entry): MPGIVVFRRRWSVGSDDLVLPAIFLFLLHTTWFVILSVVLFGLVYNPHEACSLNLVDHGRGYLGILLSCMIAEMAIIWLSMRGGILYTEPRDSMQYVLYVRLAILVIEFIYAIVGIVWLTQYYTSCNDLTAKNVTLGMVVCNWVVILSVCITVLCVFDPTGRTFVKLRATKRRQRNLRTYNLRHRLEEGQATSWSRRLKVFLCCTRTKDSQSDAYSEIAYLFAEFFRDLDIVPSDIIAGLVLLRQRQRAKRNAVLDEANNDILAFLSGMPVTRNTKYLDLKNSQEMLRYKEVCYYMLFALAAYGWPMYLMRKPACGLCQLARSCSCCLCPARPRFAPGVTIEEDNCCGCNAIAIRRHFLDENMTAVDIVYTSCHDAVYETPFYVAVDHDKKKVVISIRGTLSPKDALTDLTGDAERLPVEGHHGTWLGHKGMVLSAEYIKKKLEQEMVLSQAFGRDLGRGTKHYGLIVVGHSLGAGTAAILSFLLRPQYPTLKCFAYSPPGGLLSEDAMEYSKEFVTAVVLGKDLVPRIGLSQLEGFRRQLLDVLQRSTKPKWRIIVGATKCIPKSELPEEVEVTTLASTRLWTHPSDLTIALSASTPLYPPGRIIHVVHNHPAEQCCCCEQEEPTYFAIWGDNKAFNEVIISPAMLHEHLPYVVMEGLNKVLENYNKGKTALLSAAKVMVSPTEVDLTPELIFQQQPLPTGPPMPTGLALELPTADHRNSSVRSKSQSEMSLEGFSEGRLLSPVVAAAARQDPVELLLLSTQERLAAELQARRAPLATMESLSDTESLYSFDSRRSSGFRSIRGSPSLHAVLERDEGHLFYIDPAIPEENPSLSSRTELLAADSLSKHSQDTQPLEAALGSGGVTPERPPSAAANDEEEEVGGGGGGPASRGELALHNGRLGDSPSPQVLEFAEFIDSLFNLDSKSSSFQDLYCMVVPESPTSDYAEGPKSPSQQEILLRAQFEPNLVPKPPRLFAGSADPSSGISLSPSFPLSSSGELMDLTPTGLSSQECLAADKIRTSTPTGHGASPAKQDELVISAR
# DAGLβ (hDAGLβ-FLAG), sequence (Q8NCG7 whole entry): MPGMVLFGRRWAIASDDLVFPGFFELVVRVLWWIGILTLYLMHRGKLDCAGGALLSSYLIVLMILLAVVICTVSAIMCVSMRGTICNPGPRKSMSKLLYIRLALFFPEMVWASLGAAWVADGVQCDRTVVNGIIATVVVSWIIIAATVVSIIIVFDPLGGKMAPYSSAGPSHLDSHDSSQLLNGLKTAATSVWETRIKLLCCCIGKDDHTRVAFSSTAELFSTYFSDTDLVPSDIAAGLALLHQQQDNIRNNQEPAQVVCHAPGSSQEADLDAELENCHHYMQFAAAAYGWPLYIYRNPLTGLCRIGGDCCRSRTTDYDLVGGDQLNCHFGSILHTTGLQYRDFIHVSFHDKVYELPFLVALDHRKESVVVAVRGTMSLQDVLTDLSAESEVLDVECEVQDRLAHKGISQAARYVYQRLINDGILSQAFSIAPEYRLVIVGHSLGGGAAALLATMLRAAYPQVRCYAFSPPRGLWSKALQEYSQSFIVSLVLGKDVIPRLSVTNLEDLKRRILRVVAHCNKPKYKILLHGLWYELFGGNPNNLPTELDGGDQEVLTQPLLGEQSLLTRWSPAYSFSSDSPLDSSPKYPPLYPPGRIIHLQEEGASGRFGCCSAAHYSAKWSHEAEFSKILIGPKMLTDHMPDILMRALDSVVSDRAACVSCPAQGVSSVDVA
smiles,measurement,setting,value
"COc1cncc(OC)c1-c1ccc(-c2cn(C(=O)N3CCCCC3Cc3ccccc3)nn2)cc1 (stereo not shown) [Compound 19, (2-Benzylpiperidin-1-yl)(4-(4-(3,5-dimethoxypyridin-4-yl)phenyl)-1H-1,2,3-triazol-1-yl)methanone]",IC50,DAGLβ (hDAGLβ-FLAG); [1],106 nM
same,IC50,DAGLβ (hDAGLβ-FLAG); read-out: DAGLβ IC50,≤ 400 nM
same,IC50,DAGLα (hDAGLα-FLAG); [2],9.5 nM
same,IC50,DAGLα (hDAGLα-FLAG); read-out: DAGLα IC50,≤ 400 nM
"COc1cc(OC)c(-c2ccc(-c3cn(C(=O)N4CCCCC4Cc4ccccc4)nn3)cc2)c(OC)c1 (stereo not shown) [Compound 20, (2-Benzylpiperidin-1-yl)(4-(2′,4′,6′-trimethoxybiphenyl-4-yl)-1H-1,2,3-triazol-1-yl)methanone]",IC50,DAGLβ (hDAGLβ-FLAG); [1],319 nM
same,IC50,DAGLβ (hDAGLβ-FLAG); read-out: DAGLβ IC50,≤ 400 nM
same,IC50,DAGLα (hDAGLα-FLAG); [2],16 nM
same,IC50,DAGLα (hDAGLα-FLAG); read-out: DAGLα IC50,≤ 400 nM
"CC(C)(C)OC(=O)N1CCN(C(=O)n2ncc(-c3ccc(OC(F)(F)F)cc3)n2)C(c2ccccc2)C1 (stereo not shown) [Compound 23, tert-butyl 3-phenyl-4-(4-(4-(trifluoromethoxy)phenyl)-2H-1,2,3-triazole-2-carbonyl)piperazine-1-carboxylate]",inhibition at 0.8 µM,DAGLβ (hDAGLβ-FLAG); 0.8 μM (stated under the cell),0 to 25%
same,inhibition at 0.8 µM,DAGLα (hDAGLα-FLAG),0 to 25%
"CC(C)C(=O)N1CCN(C(=O)n2cc(-c3ccc(OC(F)(F)F)cc3)nn2)C(Cc2ccccc2)C1 (stereo not shown) [Compound 26, 1-(3-benzyl-4-(4-(4-(trifluoromethoxy)phenyl)-1H-1,2,3-triazole-1-carbonyl)piperazin-1-yl)-2-methylpropan-1-one]",inhibition at 0.8 µM,DAGLβ (hDAGLβ-FLAG); 0.8 μM (stated under the cell),0 to 25%
same,DAGLα % inh. 0.8 μM,DAGLα (hDAGLα-FLAG),* (% inhibition greater than or equal to 0% and less than 25%)
"CC(C)C(=O)N1CCN(C(=O)n2ncc(-c3ccc(OC(F)(F)F)cc3)n2)C(Cc2ccccc2)C1 (stereo not shown) [Compound 27, 1-(3-benzyl-4-(4-(4-(trifluoromethoxy)phenyl)-2H-1,2,3-triazole-2-carbonyl)piperazin-1-yl)-2-methylpropan-1-one]",inhibition at 0.8 µM,DAGLβ (hDAGLβ-FLAG); 0.8 μM (stated under the cell),0 to 25%
same,inhibition at 0.8 µM,DAGLα (hDAGLα-FLAG),0 to 25%
"CC(C)C(=O)N1CCN(C(=O)n2cc(-c3ccc(OC(F)(F)F)cc3)nn2)C(Cc2ccccc2)C1 (stereo not shown) [Compound 30, 1-(3-benzyl-4-(4-(4-(trifluoromethoxy)phenyl)-1H-1,2,3-triazole-1-carbonyl)piperazin-1-yl)-2-methylpropan-1-one]",DAGLβ % inh. 0.8 μM,DAGLβ (hDAGLβ-FLAG); 0.8 μM (stated under the cell),* (% inhibition greater than or equal to 0% and less than 25%)
same,DAGLα % inh. 0.8 μM,DAGLα (hDAGLα-FLAG),*** (% inhibition greater than or equal to 50% and less than 75%)
"C#CCCCC(=O)N1CCN(C(=O)n2cc(-c3ccc(OC(F)(F)F)cc3)nn2)C(Cc2ccccc2)C1 (stereo not shown) [Compound 34, 1-(3-benzyl-4-(4-(4-(trifluoromethoxy)phenyl)-1H-1,2,3-triazole-1-carbonyl)piperazin-1-yl)hex-5-yn-1-one]",inhibition at 0.8 µM,DAGLβ (hDAGLβ-FLAG); 0.8 μM (stated under the cell),0 to 25%
same,inhibition at 0.8 µM,DAGLα (hDAGLα-FLAG),25 to 50%
"C#CCCCC(=O)N1CCN(C(=O)n2ncc(-c3ccc(OC(F)(F)F)cc3)n2)C(Cc2ccccc2)C1 (stereo not shown) [Compound 35, 1-(3-benzyl-4-(4-(4-(trifluoromethoxy)phenyl)-2H-1,2,3-triazole-2-carbonyl)piperazin-1-yl)hex-5-yn-1-one]",inhibition at 0.8 µM,DAGLβ (hDAGLβ-FLAG); 0.8 μM (stated under the cell),0 to 25%
same,inhibition at 0.8 µM,DAGLα (hDAGLα-FLAG),0 to 25%
"O=C(N1C[C@@H](OCC2CC2)CC[C@@H]1Cc1ccccc1)n1cc(-c2ccc(OC(F)(F)F)cc2)nn1 [Compound 44, ((2R,5S)-2-benzyl-5-(cyclopropylmethoxy)piperidin-1-yl)(4-(4-(trifluoromethoxy)phenyl)-1H-1,2,3-triazol-1-yl)methanone]",inhibition at 0.0032 µM,DAGLβ (hDAGLβ-FLAG),0 to 25%
same,inhibition at 0.0032 µM,DAGLα (hDAGLα-FLAG),25 to 50%
"O=C(N1C[C@@H](OCC2CC2)CC[C@@H]1Cc1ccccc1)n1ncc(-c2ccc(OC(F)(F)F)cc2)n1 [Compound 45, ((2R,5S)-2-benzyl-5-(cyclopropylmethoxy)piperidin-1-yl)(4-(4-(trifluoromethoxy)phenyl)-2H-1,2,3-triazol-2-yl)methanone]",inhibition at 0.0032 µM,DAGLβ (hDAGLβ-FLAG),0 to 25%
same,inhibition at 0.0032 µM,DAGLα (hDAGLα-FLAG),25 to 50%
"CCC(CC)CN(CCc1ccccc1)C(=O)n1ncc(-c2ccc(OC(F)(F)F)cc2)n1 [Compound 126, N-(2-ethylbutyl)-N-phenethyl-4-(4-(trifluoromethoxy)phenyl)-2H-1,2,3-triazole-2-carboxamide]",IC50,DAGLα (hDAGLα-FLAG); read-out: DAGLα IC50,2000 to 10000 nM
